# Test results from US20230372427A1, “THE COMPOSITIONS OF PLANT INGREDIENTS AND HERBS AGAINST CORONAVIRUS” (priority 2022, published 2023).
# Tested on: wild-type SARS-CoV-2 pseudotyped lentivirus (WT-GFP-SARS-CoV-2-pseudotyped lentivirus)
# Assay: microbe, parasite or virus in culture
# Format: cell-based
# Conditions: HEK-293T, 72 h, read-out: inhibitory effect (viral entry), positive control
smiles,measurement,value
"CCN(CC)CCCC(C)Nc1ccnc2cc(Cl)ccc12 (stereo not shown) [chloroquine, Chloroquine]",inhibition at 0.5 µg/mL,~70%
